Data as given in the METLIN SMRT retention time set (Domingo-Almenara et al. 2019).

Experiment: gradient 5% acetonitrile 3 min, to 50% in 2 min, to 85% in 15 min, held 3 min, 100 µL/min
Conditions: column: Zorbax Extend-C18 2.1 x 50 mm; eluents: water / acetonitrile, 0.1% formic acid
Procedure, shortened: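 Pure standards were run in mixtures of ~100 molecules by HPLC coupled to a quadrupole time-of-flight mass spectrometer. The column was a Zorbax Extend-C18 (2.1 × 50 mm, 1.8 μm) at 100 μL/min, with water and acetonitrile each containing 0.1% formic acid, in positive and negative ionization mode. Dead and dwell volumes were 40 μL and 900 μL. Retention time was taken from computationally picked adduct peaks, each manually inspected, with data collected over 3 months.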

In order of falling RP-LC retention time:
1. Cc1ccc(NS(=O)(=O)c2c(C)sc(C)c2-c2cc(C(F)(F)F)on2)c(C)c1  1240 s
2. COc1ccc2c(c1)-c1nc(NC(=O)c3ccc(OC)c(Br)c3)sc1CC2  1220 s
3. O=C(NCc1ccc(F)cc1F)c1c(O)c2cccnc2n(-c2cccc(F)c2)c1=O  1190 s
4. CN(C)S(=O)(=O)c1ccc(C(=O)OCc2cc(-c3ccc(Cl)cc3)on2)cc1  1090 s
5. COc1ccc(NC(=O)c2cc(C)n3nc(-c4ccco4)cc3n2)cc1F  1060 s
6. Cn1cc(-c2nc(C(=O)NC3CCCCCC3)cs2)c2cccnc21  1040 s
7. O=C(Cn1ccc2ccccc21)N1CCC(COCc2ccccc2)CC1  1020 s
8. CC(C)CCNC(=O)C1(C)CCc2ccccc2C(=O)N1CCc1c[nH]c2ccccc12 (configuration not stated)  950 s
9. Cc1ccccc1-n1c(/C=C\c2ccccn2)nc2ccccc2c1=O  948 s
10. COC1CCC12CCN(C(=O)C1CCCCC1)CC2 (configuration not stated)  903 s
11. COc1ccc(-c2c(C)noc2NC(C)=O)cc1S(=O)(=O)N1CCCc2ccccc21  856 s
12. COC(=O)C1=CN(c2ccccc2C)c2ccccc2S1(=O)=O  848 s
13. O=C(C(=O)N1CCN(c2ccccc2)CC1)c1c[nH]c2ccccc12  845 s
14. O=C(Nc1ccc(N2CCN(c3ccccc3)C2=O)nc1)C1CCC1  844 s
15. COc1cc(OC)cc(C(=O)N(C)CCc2noc(C(=O)NCc3ccccc3)n2)c1  809 s
16. CCc1noc(-c2ccc(-n3ncc(C(=O)NC4CC4)c3C)nc2)n1  792 s
17. COc1ccc(N2CCN(C3=NS(=O)(=O)c4ccccc43)CC2)cc1  780 s
18. CSc1ccc(-c2nc3ccccn3c2Nc2ccc(Cl)cc2)cc1  779 s
19. Cc1nnc([C@@H]2CC(F)(F)CN2C(=O)COc2ccc(Cl)cc2)o1  779 s
20. CCN1CCCn2cc(S(=O)(=O)Nc3ccc(C)c(C)c3)cc2C1=O  778 s
21. Cc1noc(C)c1S(=O)(=O)N1CCc2nn(Cc3ccccc3)c(=O)n2CC1  776 s
22. COc1ccc(CNC(=O)Cn2c(=O)c(CCC(=O)NCC(C)C)nc3ccccc32)cc1  762 s
23. CCCc1noc(-c2cccnc2N2CCCN(Cc3ccc(C)cc3)CC2)n1  749 s
24. N#Cc1ccc(C(=O)NC2CCN(c3ccccc3)C2=O)cc1 (configuration not stated)  742 s
25. COc1ccc(C2(CNC(=O)Cc3cccs3)CCOCC2)cc1  734 s
26. Cc1ccnc(NC(=O)Cn2ccc3ccc(-c4nnc(C)o4)cc32)c1  674 s
27. COC(=O)Cn1c(-c2ccccc2)cnc1SCC(=O)Nc1nccs1  671 s
28. COc1ccc(-c2nc3ccccn3c2NC(=O)c2ccc([N+](=O)[O-])cc2)cc1  662 s
29. O=C(c1ccc(/C=C/c2n[nH]c3ccccc23)cc1)N1CCNCC1  648 s
30. Cn1cnc(S(=O)(=O)N2CCCCC2c2nc(-c3ccncc3)n[nH]2)c1 (configuration not stated)  646 s
31. CC(O)(CCc1ccccc1)CNC(=O)CN1C(=O)CCC1=O (configuration not stated)  631 s
32. COC(=O)C1=C(CN2CCSCC2)NC(=O)NC1c1ccccc1Cl (configuration not stated)  621 s
33. COc1ccccc1-c1c(C)nn2c(N3CCN(c4ccccn4)CC3)cc(C)nc12  604 s
34. CC(C)CNC(=O)N1C[C@@H]2CCCN3CCC[C@@H]([C@H]23)[C@H]1CCCC(=O)NCC1CC1  603 s
35. CCN1CCN(C(=O)c2c(C)sc3ccn(CC(C)C)c(=O)c23)CC1  598 s
36. CCOC(=O)c1c(C)[nH]c(C(=O)N2CCCC(C(=O)NCCCN3CCN(CC)CC3)C2)c1C (configuration not stated)  579 s
37. CCC(=O)Nc1ccc(N(C)CCc2c(C)nn(C)c2C)c(C(=O)O)c1  572 s
